Data as given in US10464925B2, “Methods to induce targeted protein degradation through bifunctional molecules” (Dana-Farber Cancer Institute, Inc., priority 2015, dated 2019).
Like-named read-outs stand apart in the source and are kept apart here.

Assays:
MV4; 11 = assay: Cell viability, ATPlite 48 hours, MV4-11; assay type: cell-based; conditions: Homo sapiens, 11 cells
NGP = assay: Cell viability, ATPlite 72 hours; assay type: cell-based; conditions: read-out: IC50 (nM) NGP
CUTL1 = assay: Cell viability, ATPlite 48 hours, CUTLL1; assay type: cell-based; conditions: CUTL1 cells
797 = assay: Cell viability, 797 cells (Table 4); assay type: cell-based; conditions: read-out: IC50 (nM) 797
PLK1 = PLK1 (Homo sapiens, UniProt P53350); assay: PLK1 IC50 (Table 4); assay type: biochemical
MOLT4 = assay: Cell viability, ATPlite 48 hours, MOLT4; assay type: cell-based; conditions: Homo sapiens, MOLT-4; MOLT4 cells
DND41 = assay: Cell viability, ATPlite 48 hours, DND41; assay type: cell-based; conditions: DND41 cells
BRDT = BRDT (Homo sapiens, UniProt Q58F21); assay: BRDT IC50 (Table 4); assay type: binding
BRD4 [1] = target: T1, BRD4 (Homo sapiens, UniProt O60885); assay: BRD4 Cell Western (BRD4 levels in 293T cells, LiCOR); assay type: cell-based; parameters: BRD4 levels in the cells after the dBET treatment; endogenous in cells
[2] = target: T2, BRD4 adjoined to nanoluciferase (Nluc) (Homo sapiens, UniProt O60885+Q96SW2); assay: BRD4 Dual Luciferase Assay; assay type: cell-based; conditions: for Emax: read-out: BRD4− Emax (percent remaining);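 as to all read-outs here: transduced reporter cells exposed to compound for 4 h, then Nluc and Fluc luminescence read, each normalized to DMSO controls and expressed as Nluc/Fluc ratio per well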
T2 construct: expressed in transfected cells

CRBN-DDB1 = target: T3, CRBN-DDB1 (Homo sapiens, UniProt Q96SW2); assay: CRBN-DDB1 Ligand-Displacement AlphaScreen Assay (thalidomide competition); assay type: binding; conditions: biotin-thalidomide competition; read-out: THAL ALPHA (IC50);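 also: streptavidin donor and nickel chelate acceptor bead proximity signal after 30 min incubation, normalized with no-protein background as 0% and DMSO wells as 100% activity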
T3 construct: 6xHis (given for the complex); made in house; host or cells: Sf9 cells (Invitrogen), pFastBac

BRD4 [3] = target: T1, BRD4; assay: BRD4 AlphaScreen; assay type: binding; parameters: […]; His tag (inferred from capture on Ni-coated acceptor beads)
CRBN = target: T4, CRBN (Homo sapiens, UniProt Q96SW2); assay: Intracellular CRBN Engagement Assay (dFKBP7 rescue); assay type: cell-based; conditions: competition with 80 nM dFKBP7, 3 hours; read-out: FKBP7 rescue (EC50)
T4 construct: endogenous in cells

LRRK2 = LRRK2 (Homo sapiens, UniProt Q5S007); assay: LRRK2 IC50 (Table 4); assay type: biochemical
[4] = target: T5, fusion of mutant FKBP12 to nanoluciferase (Homo sapiens, UniProt P62942+Q96SW2, F37V); assay: FKBP Dual Luciferase Assay, wild-type 293FT, mutant FKBP12 (36V); assay type: cell-based; conditions: 4 hours; read-out: Max Degradation (dual luciferase, %) FKBP 36V
T5 construct: expressed in transfected cells

[5] = target: T6, fusion of FKBP12 to nanoluciferase (Homo sapiens, UniProt P62942+Q96SW2); assay: FKBP Dual Luciferase Assay, wild-type 293FT, FKBP12; assay type: cell-based; conditions: 4 hours; for Dmax: read-out: Max Degradation (dual luciferase, %) FKBP
T6 construct: expressed in transfected cells

FKBP12 (36V) = FKBP12 (36V) (Homo sapiens, UniProt P62942, F37V); assay: FKBP12 (36V) Ligand-Displacement AlphaScreen Assay; assay type: binding; conditions: biotin-SLF displacement, read-out: IC50 (nM) FKBP 36V
BRD4 [6] = target: T1, BRD4; assay: Immunoblot for BRD4 in MV4-11 cells; assay type: cell-based; conditions: MV4-11, 24 h
[7] = HEK-293T; read-out: BRD4 max degradation(%) Cell Western
[8] = 4 hours, read-out: max degradation (dual luc)
[9] = read-out: BRD4 max degradation(%) Dual Luciferase

SMILES | IC50 (MV4; 11) | IC50 (MOLT4) | IC50 (BRDT; read-out: IC50 (nM) BRDT) | Dmax (BRD4 [1]; [7]) | Dmax [2, 8] | Emax ([2]; BRD4 remaining at Emax) | Dmax [2, 9] | IC50 (NGP; NGP cells, Table 4) | IC50 (CUTL1) | IC50 797 | IC50 (DND41) | also measured
CC[C@@H]1C(=O)N(C)c2cnc(Nc3ccc(C(=O)NCCCCCCNC(=O)COc4cccc5c4C(=O)N(C4CCC(=O)NC4=O)C5=O)cc3OC)nc2N1C1CCCC1 (some centres unmarked) [dBET7] | – | 46.6 nM | 549 nM | 63% | 54.1% | 43.7% | 54% | 131 nM | 29.2 nM | 16 nM | 31.4 nM | Conc@Emax [2]: 0.5 µM
CC[C@@H]1C(=O)N(C)c2cnc(Nc3ccc(C(=O)NCCCCCCCCNC(=O)COc4cccc5c4C(=O)N(C4CCC(=O)NC4=O)C5=O)cc3OC)nc2N1C1CCCC1 (some centres unmarked) [dBET8] | – | 88.5 nM | 820 nM | – | – | – | – | 153 nM | 42 nM | – | 47.2 nM | –
Cc1sc2c(c1C)C(c1ccc(Cl)cc1)=N[C@@H](CC(=O)NCCCCCCNC(=O)c1ccc3c(c1)C(=O)N(C1CCC(=O)NC1=O)C3=O)c1nnc(C)n1-2 (some centres unmarked) [dBET15] | 312 nM | 6960 nM | – | – | – | – | 18% | – | 6840 nM | 1270 nM | 10400 nM | Dmax (BRD4 [1]; HEK-293T, read-out: BRD4 max degradation(%) Cell Western): 24%; Emax [2]: 78.2%; Dmax ([2]; read-out: max degradation (dual luc)): 18.2%; IC50 (NGP; NGP): > 20000 nM; IC50 (BRDT): 93 nM
Cc1c(CC#N)sc2c1C(c1ccc(Cl)cc1)=N[C@@H](CC(=O)NCCCCNC(=O)COc1cccc3c1C(=O)N(C1CCC(=O)NC1=O)C3=O)c1nnc(C)n1-2 (some centres unmarked) [dBET19] | – | – | 1130 nM | – | -1.3% | 93.3% | > 5% | – | – | > 20000 nM | – | IC50 (CRBN-DDB1): 3.62 nM; IC50 (BRD4 [3]; read-out: BRD4 Alpha (IC50)): 212 nM; IC50 (BRD4 [3]; read-out: IC50 (nM) BRD4): 212 nM; EC50 (CRBN): 4330 µM
CCC(C)(C)C(=O)C(=O)N1CCC[C@H]1C(=O)O[C@H](CCc1ccc(OC)c(OC)c1)c1cccc(OCC(=O)NCCCCNC(=O)COc2cccc3c2C(=O)N(C2CCC(=O)NC2=O)C3=O)c1 (some centres unmarked) [dFKBP-3] | – | – | – | – | – | – | – | – | – | – | – | Dmax [4]: 12%; Dmax [5]: 22%; IC50 (FKBP12 (36V)): 1200 nM
CCC(C)(C)C(=O)C(=O)N1CCCC[C@H]1C(=O)O[C@H](CCc1ccc(OC)c(OC)c1)c1cccc(OCC(=O)NCCCCNC(=O)COc2cccc3c2C(=O)N(C2CCC(=O)NC2=O)C3=O)c1 (some centres unmarked) [dFKBP-4] | – | – | – | – | – | – | – | – | – | – | – | Dmax [4]: 21%; DC50 [5]: 2.97 nM; Dmax [5]: 34%; IC50 (FKBP12 (36V)): 369 nM
COc1ccc(CC[C@@H](OC(=O)[C@@H]2CCCCN2C(=O)Cc2ccccc2)c2cccc(OCC(=O)NCCCCNC(=O)COc3cccc4c3C(=O)N(C3CCC(=O)NC3=O)C4=O)c2)cc1OC (some centres unmarked) [dFKBP-5] | – | – | – | – | – | – | – | – | – | – | – | Dmax [4]: < 5%; Dmax [5]: 11%; IC50 (FKBP12 (36V)): 2290 nM
O=C1CCC(N2C(=O)c3ccccc3C2=O)C(=O)N1 (centres unmarked) [thalidomide] | – | – | – | – | – | – | – | – | – | – | – | BRD4 degradation by treatment alone (BRD4 [6]): insufficient to induce BRD4 degradation

Continued, in another order:

IC50 (MV4; 11) | IC50 (MOLT4) | IC50 (BRDT; read-out: IC50 (nM) BRDT) | Dmax (BRD4 [1]; [7]) | Dmax [2, 8] | Emax ([2]; BRD4 remaining at Emax) | Dmax [2, 9] | SMILES | IC50 (NGP; NGP cells, Table 4) | IC50 (CUTL1) | IC50 797 | IC50 (DND41) | also measured
6.3 nM | 192 nM | 405 nM | – | – | – | – | CC[C@@H]1C(=O)N(C)c2cnc(Nc3ccc(C(=O)NCCCCNC(=O)COc4cccc5c4C(=O)N(C4CCC(=O)NC4=O)C5=O)cc3OC)nc2N1C1CCCC1 (some centres unmarked) [dBET2] | 156 nM | 81.2 nM | 113 nM | 110 nM | IC50 (PLK1): 6.15 nM
– | – | 88 nM | 31.6% | 12.7% | 84% | 13% | Cc1sc2c(c1C)C(c1ccc(Cl)cc1)=N[C@@H](CC(=O)NCCNC(=O)COc1cccc3c1C(=O)N(C1CCC(=O)NC1=O)C3=O)c1nnc(C)n1-2 (some centres unmarked) [dBET3] | – | – | – | – | Conc@Emax [2]: 0.5 µM
– | – | 110 nM | 66% | 53% | 44.7% | 53% | Cc1sc2c(c1C)C(c1ccc(Cl)cc1)=N[C@@H](CC(=O)NCCCCCCNC(=O)COc1cccc3c1C(=O)N(C1CCC(=O)NC1=O)C3=O)c1nnc(C)n1-2 (some centres unmarked) [dBET5] | – | – | – | – | –
28 nM | – | 52 nM | 41% | 24.8% | 71% | 25% | Cc1sc2c(c1C)C(c1ccc(Cl)cc1)=N[C@@H](CC(=O)NCCCOCCOCCOCCCNC(=O)COc1cccc3c1C(=O)N(C1CCC(=O)NC1=O)C3=O)c1nnc(C)n1-2 (some centres unmarked) [dBET9] | 8420 nM | 1550 nM | 296 nM | 1520 nM | –
28 nM | 452 nM | 309 nM | 20% | 25.3% | 73.1% | 25% | CC[C@@H]1C(=O)N(C)c2cnc(Nc3ccc(C(=O)NCCCOCCOCCOCCCNC(=O)COc4cccc5c4C(=O)N(C4CCC(=O)NC4=O)C5=O)cc3OC)nc2N1C1CCCC1 (some centres unmarked) [dBET10] | 413 nM | 152 nM | 163 nM | 271 nM | Conc@Emax [2]: 50 µM; IC50 (CRBN-DDB1): 12.7 nM; IC50 (PLK1): 10.2 nM; IC50 (BRD4 [3]; read-out: BRD4 Alpha (IC50)): 83 nM; IC50 (BRD4 [3]; read-out: IC50 (nM) BRD4): 83 nM; EC50 (CRBN): 8.12 µM
> 20000 nM | – | 5870 nM | – | – | – | – | COc1cc(C(=O)NCCCOCCOCCOCCCNC(=O)COc2cccc3c2C(=O)N(C2CCC(=O)NC2=O)C3=O)ccc1Nc1ncc2c(n1)N(C)c1ccccc1C(=O)N2C (centres unmarked) [dBET12] | – | – | > 20000 nM | – | IC50 (CRBN-DDB1): 23.8 nM; IC50 (LRRK2): 32 nM; EC50 (CRBN): 34.4 µM
– | 13500 nM | 217 nM | – | – | – | – | Cc1sc2c(c1C)C(c1ccc(C#N)cc1)=N[C@@H](CC(=O)NCCCCNC(=O)COc1cccc3c1C(=O)N(C1CCC(=O)NC1=O)C3=O)c1nnc(C)n1-2 (some centres unmarked) [dBET17] | > 20000 nM | > 20000 nM | 5020 nM | 17300 nM | –
– | 1920 nM | 28 nM | 57% | 36.5% | 65.4% | 37% | Cc1sc2c(c1C)C(c1ccc(Cl)cc1)=N[C@@H](CC(=O)NCCCN1CCN(C(=O)CCCCCNC(=O)COc3cccc4c3C(=O)N(C3CCC(=O)NC3=O)C4=O)CC1)c1nnc(C)n1-2 (some centres unmarked) [dBET18] | 4960 nM | 2840 nM | 1360 nM | 1790 nM | IC50 (CRBN-DDB1): 1.57 nM; IC50 (BRD4 [3]; read-out: BRD4 Alpha (IC50)): 11 nM; IC50 (BRD4 [3]; read-out: IC50 (nM) BRD4): 11 nM; EC50 (CRBN): 749 µM
